From patent US10493077B2, “Fused imidazo-piperidine JAK inhibitor compound” (THERAVANCE BIOPHARMA R&D IP, LLC, priority 2017, dated 2019)

What was measured:
[1] = Lung and plasma pharmacokinetics in mice; format: in vivo, mouse; settings: BALB/c mice, Form 1 suspension 0.1 mg/mL, 50 μL by oral aspiration
Procedure: Plasma and lung concentrations of compound 1 and ratios thereof were determined in the following manner. BALB/c mice from Charles River Laboratories were used in the assay. Compound 1 Form 1 of example 2 was formulated in 0.01% Tween 80 in normal saline (0.9% sodium chloride in water) at a concentration of 0.1 mg/mL as a suspension. 50 μL of the suspension formulation was introduced into the trachea of a mouse by oral aspiration. At various time points (0.083, 1, 4, 24, 48, 72, and 96 hr). Post dosing, blood samples were removed via cardiac puncture and intact lungs were excised from the mice. Blood samples were centrifuged (Eppendorf centrifuge, 5804R) for 4 minutes at approximately 12,000 rpm at 4° C. to collect plasma. Lungs were padded dry, weighed, and homogenized at a dilution of 1:3 in sterile water. Plasma and lung concentrations of compound 1 were determined by LC-MS analysis against analytical standards constructed into a standard curve in the test matrix. […] The lung half-life was calculated at approximately 40 hours. The lung to plasma ratio was determined as the ratio of the lung AUC in μg hr/g to the plasma AUC in μg hr/mL (where AUC is conventionally defined as the area under the curve of test compound concentration vs. time).

[2] = target: T1, PLK4 (Homo sapiens, UniProt O00444); experiment: Kinome screen, PLK4; format: binding; settings: screened at 1 μM
T1 construct: made in house; host or cells: T7 phage in E. coli (BL21-derived) or HEK-293
T1 sequence (O00444 whole entry): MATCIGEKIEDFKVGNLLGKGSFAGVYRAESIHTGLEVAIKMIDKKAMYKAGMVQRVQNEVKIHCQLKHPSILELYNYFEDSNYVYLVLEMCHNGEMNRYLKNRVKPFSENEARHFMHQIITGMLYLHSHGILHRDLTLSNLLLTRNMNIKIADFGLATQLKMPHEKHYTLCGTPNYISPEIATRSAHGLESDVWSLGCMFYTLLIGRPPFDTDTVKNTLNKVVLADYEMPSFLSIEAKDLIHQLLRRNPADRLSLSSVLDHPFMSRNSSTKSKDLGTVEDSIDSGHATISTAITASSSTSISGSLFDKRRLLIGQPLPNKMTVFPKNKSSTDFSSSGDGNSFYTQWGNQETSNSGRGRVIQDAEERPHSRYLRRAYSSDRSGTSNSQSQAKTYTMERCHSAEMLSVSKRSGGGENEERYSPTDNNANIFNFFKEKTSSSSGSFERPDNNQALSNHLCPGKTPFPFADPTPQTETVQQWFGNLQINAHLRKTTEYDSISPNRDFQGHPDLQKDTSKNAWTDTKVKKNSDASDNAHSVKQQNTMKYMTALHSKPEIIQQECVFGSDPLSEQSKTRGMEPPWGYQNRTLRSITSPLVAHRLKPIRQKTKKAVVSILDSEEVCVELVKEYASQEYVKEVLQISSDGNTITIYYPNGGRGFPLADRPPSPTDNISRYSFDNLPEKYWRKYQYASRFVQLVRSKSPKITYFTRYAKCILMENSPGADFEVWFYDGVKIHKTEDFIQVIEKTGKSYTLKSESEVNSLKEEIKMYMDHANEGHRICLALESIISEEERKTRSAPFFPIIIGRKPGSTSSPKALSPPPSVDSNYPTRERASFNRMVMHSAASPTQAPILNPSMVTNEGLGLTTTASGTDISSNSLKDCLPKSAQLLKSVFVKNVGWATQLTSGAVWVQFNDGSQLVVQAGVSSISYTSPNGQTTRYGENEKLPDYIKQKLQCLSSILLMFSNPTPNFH
Procedure: Kinase-tagged T7 phage strains were grown in parallel in 24-well blocks in an E. coli host derived from the BL21 strain. E. coli were grown to log-phase and infected with T7 phage from a frozen stock (multiplicity of infection=0.4) and incubated with shaking at 32° C. until lysis (90-150 minutes). The lysates were centrifuged (6,000×g) and filtered (0.2 μm) to remove cell debris. The remaining kinases were produced in HEK-293 cells and subsequently tagged with DNA for qPCR detection.
Streptavidin-coated magnetic beads were treated with biotinylated small molecule ligands for 30 minutes at room temperature to generate affinity resins for kinase assays. The liganded beads were blocked with excess biotin and washed with blocking buffer (SeaBlock (Pierce), 1% BSA, 0.05% Tween 20, 1 mM DTT) to remove unbound ligand and to reduce non-specific phage binding. […] Test compounds were prepared as 40× stocks in 100% DMSO and directly diluted into the assay. All reactions were performed in polypropylene 384-well plates in a final volume of 0.04 ml. […] The beads were then re-suspended in elution buffer (1×PBS, 0.05% Tween 20, 0.5 μM non-biotinylated affinity ligand) and incubated at room temperature with shaking for 30 minutes. The kinase concentration in the eluates was measured by qPCR.

[3] = Dermal pharmacokinetics in mouse skin; format: in vivo; settings: mice, model cream and ointment formulations, without detectable plasma exposure
Description: The objective of this assay was to determine the epidermal, dermal and plasma pharmacokinetics of a test compound following a 24 hr exposure to intact mouse or mini-pig skin.
Twenty-four hours prior to dosing the hair was shaved from the back of 25 g male Balb/c mice exposing an area at of least 6 cm^2 (about 10% of body surface) and, in a separate experiment, of 10 kg Gottingen mini-pigs exposing an area of at least 450 cm^2 (about 10% of body surface). At time zero, following isoflurane anesthesia, the test compound was applied to the back of mice or mini-pigs at a dose of 25 μL/cm^2. The skin was covered with an adhesive cover to prevent loss of compound to the cage or bedding.
Following 24 h exposure, the backs were gently washed with soap and water to remove non-absorbed drug and patted dry. Immediately following this washing, blood was drawn by cardiac puncture from the mice and via venipuncture from the mini-pigs. The outer skin (stratum corneum) was then removed by adhesive tape stripping. Upon exposure of the epidermis a 0.5 cm punch biopsy was taken. The epidermis and dermis were quickly separated, weighed and snap frozen. […]
Epidermis and dermis samples were homogenized in 1:10 (w/v) water using a Covaris ultrasonic homogenizer. Samples were extracted in 3 volumes of acetonitrile and quantified against a standard curve via LC-MS analysis.

## CCc1cc(O)c(F)cc1-c1cc(F)c2c(-c3nc4c([nH]3)CCN(C(=O)CN3CCOCC3)C4)n[nH]c2c1 [Compound 1, 1-(2-(6-(2-ethyl-5-fluoro-4-hydroxyphenyl)-4-fluoro-1H-indazol-3-yl)-1,4,6,7-tetrahydro-5H-imidazo[4,5-c]pyridin-5-yl)-2-morpholinoethan-1-one]
[1]
  lung AUC (0-96 hr): 360 µg·h/g
[1]; mouse, lung and plasma, 5 μg/mouse, read-out: lung to plasma AUC ratio
  Kp: 1780
[1]; mouse, lung, 5 μg/mouse
  half-life: ~2400 min
[2]
  inhibition at 1 µM: 58%
[3]
  duration of sustained dermal levels: at least 2 days
